From US11629174B2, “Cryptic metabolites and method for activating silent biosynthetic gene clusters in actinomycete bacteria” (The Trustees of Princeton University, priority 2017, dated 2023)

Tests used:
SAV3643 and SAV3665 = test: RT-qPCR of SAV3643 and SAV3665 in cluster 3648; format: cell-based, S. avermitilis; details: 5 ug/mL, relative to untreated samples
S. avermitilis = test: Growth inhibition of S. avermitilis by elicitor; format: cell-based; details: dose-response series in 2.5 ug/mL steps
Gene cluster 3648 = test: HiTES in S. avermitilis, gene cluster 3648; format: cell-based; details: FIGS. 16 and 17
S. albus = test: Anti-bacterial effect of elicitor on the producing strain; format: cell-based, Streptomyces albus J1074; details: at high concentrations
sur cluster = test: High-throughput elicitor screen (HiTES), eGFPx3 reporter strains of the sur cluster; format: cell-based, Streptomyces albus J1074; details: attB::Psur-eGFPx3 and surE::eGFPx3, ~33 μM, 60 h, hit threshold 2.5-fold eGFP fluorescence
Protocol: These next four steps are seen be referring to the previously described example. In the previously described example, HiTES was carried out using the two constructs seen in FIGS. 2B and 2C with a ˜500-member natural products library. Each S. albus construct was grown in a 96-well format, supplemented with the compound library, and the effect of each compound on the silent BGC determined using eGFP-derived fluorescence. Interference from naturally fluorescent compounds in the library was eliminated by subtracting the […], immediately after addition of the library members.
Referring to FIGS. 3A and 3B, results for both genetic constructs are shown. These graphs show relative expression of a neutral site reporter, attB::Psur-eGFPx3 (FIG. 3A) or targeted sur reporter, surE::eGFPx3 (FIG. 3B) as a function of exogenously-supplied small molecules. Each bar represents the level of expression of sur in the presence of a single candidate elicitor. Plus signs denote the positive control, attB::PermE-eGFPx3. Minus signs denote the negative controls, attB::Psur-eGFPx3 (3A) or surE::eGFPx3 (3B) in the absence of any metabolites. The expression has been normalized to the positive control.
In this example, the threshold amount was a 2.5 fold induction of eGFP-derived fluorescence emission. Thus, hits were considered those that gave at least a 2.5-fold induction of eGFP-derived fluorescence emission. However, in other embodiments, hits may be those giving at least a 2 fold induction, more preferably at least a 3 fold induction, and more preferably at least a 4 fold induction.
Seed cultures for the reporter strains sur::eGFPx3, attB::Psur-eGFPx3, negative control wild-type, and positive control attB::PermE-eGFPx3 inoculated by transferring fresh spores (˜10^7) into 20 mL of YEME medium (per L: 3% (w/v) yeast extract, 5% peptone, 3% malt extract, 1% glucose and 10.7% sucrose, and 5 mM MgCl2.6H2O) in a 125 mL Erlenmeyer flask equipped with stain-less steel springs. The cultures were grown at 30° C. and 250 rpm for 3 days. Mycelia from each of the four cultures were collected by centrifugation (10 min, 3000 g, RT) and diluted into 150 mL of R4 medium to give a final concentration of 0.05% (w/v). R4 medium consisted of (per L) 0.5% (w/v) glucose, 0.1% yeast extract, 0.5% MgCl2.6H2O, 0.2% CaCl2.2H2O, 0.15% proline, 0.118% valine, 0.28% TES, 50 mg/L casamino acid, 100 mg/L K2SO4, and 1× trace element solution, which contains 40 mg/L ZnCl2, 200 mg/L FeCl3.6H2O, 10 mg/L CuCl2.2H2O, 10 mg/L MnCl2.4H2O, 10 mg/L Na2B4O7.10H2O, and 10 mg/L (NH4)6Mo7O24.4H2O).
Subsequently, the two reporter strains (sur::eGFPx3 and attB::Psur-eGFPx3) were each dispensed into 5× sterile, clear-bottom 96-well plates (150 μL per well) using a MultiFlo Microplate Dispenser (BioTek). A separate sterile 96-well separate plate was prepared for positive and negative controls; it contained the negative control (wt S. albus J1074) in columns 1-3, sur::eGFPx3 in columns 4-6, attB::Psur-eGFPx3 in columns 7-9, and the positive control attB::PermE-eGFPx3 in columns 10-12 of the plate. No elicitors were added to the control plates. […] Upon additional of the compound library, t=0 fluorescence reads were recorded on a Synergy H1MF plate reader (BioTek) using Aex=485 nm and Aem=505-650 nm in 5 nm steps. […]

surA and surC = test: RT-qPCR of surA and surC transcripts in wt S. albus; format: cell-based, Streptomyces albus J1074
Protocol: In the example above, the effects of these putative elicitors on the sur cluster were validated by performing a RT-qPCR with wt S. albus. Upon exposure of S. albus to each elicitor or DMSO (control), total RNA was be isolated, converted to cDNA and the surA and surC transcripts quantified by qPCR. […] To further verify the effect of 1 and 2, a dose-response assay was carried out. With both elicitors, a concentration-dependent induction of sur was observed, yielding optimal upregulation at a final concentration of ˜23 μM (etoposide) and −30 μM (ivermectin) (FIG. 4B). These concentrations induced a ˜10-fold (etoposide) and 4.5-fold (ivermectin) upregulation of surC.
All operations involving RNA utilized a dedicated RNase-free work area. To commence the experiment, seed cultures of wt S. albus J1074 were prepared by inoculating 3 ml of TSBY medium (3% (w/v) tryptic soy broth and 0.5% yeast extract) in a sterile 14 ml bacterial culture tube with freshly-prepared spores (˜10^7). The culture was incubated at 30° C. and 250 rpm in an Ecotron Shaker (ATR). After 48 hours cultivation, the cells were collected by centrifugation and subsequently diluted to a final concentration of 0.05% (w/v) in 250 ml Erlenmeyer flask containing 50 ml of R4 medium. Desired elicitors were added to final concentrations indicated in the figures (typically 1-100 μM), and the cultures were incubated at 30° C. and 250 rpm. After 48 h, 1 ml was removed from each sample and transferred to a 1.5 ml RNase-free Eppendorf tube (Ambion). Each sample was centrifuged (16,000 g, 3 min) to collect the cells, the supernatant discarded, the cells flash-frozen in liquid N2, and stored at −80° C.
RNA isolation was carried out using the Qiagen RNeasy kit following the manufacturer's instructions without modifications. Upon isolation, contaminating DNA was removed using the DNA-free kit (Ambion) according to manufacturer's instructions. Gel electrophoreses subsequently confirmed RNA integrity (FIG. S2). Finally, total RNA was converted into cDNA via the PrimeScript™ RT reagent Kit (Takara) using random hexamers as primers and 500 ng of each RNA sample as template.
Three genes (surA, surC and surR) were chosen for quantification by RT-qPCR. The primers were designed using primer-3-plus software available online. The primers were carefully chosen to give an amplicon length of 130-160 bp and a melting temperature of 60° C., though this was later optimized (see below and Table 2). The primers were chosen to vary in length between 18-22 bp, and, if possible, to contain a single G/C clamp at the 3′ end. To ensure optimal qPCR parameters, the genomic DNA of S. albus J1074 was isolated using the Wizard genomic DNA purification kit (Promega), and each amplicon was subsequently amplified using standard PCR conditions with a high-fidelity, proof-reading Q5 DNA polymerase (NEB). The PCR reactions were then separated on a 1.2% agarose gel, the amplicon excised, and gel-extracted with the Gel Extraction kit (Qiagen). The extracted DNA was used to optimize qPCR conditions. Using the amplicon template, the primer concentrations were first varied followed by the annealing/extension temperatures, which ranged from 58-68° C. in eight steps. The combination that gave the lowest quantification cycle (Cq) was used in the experiments (Table 2). The Cq was obtained with an automatic baseline determined by the CFX Manager Software (Bio-Rad). As positive controls, these standards were included in every plate that contained the experimental samples, along with no-DNA controls, in duplicates.
qPCR analysis was performed on a CFX96 Real-Time PCR Detection System (Bio-Rad) consisting of a C1000 Thermal Cycler and a CFX96 Real-Time System. The reaction was carried out in hard-shell, clear 96-well qPCR plates (Bio-Rad) and utilized the iTaq Universal SYBR Green Supermix (Bio-Rad). […]

Gene cluster 4477 = test: HiTES in S. erythraea, gene cluster 4477; format: cell-based; details: FIG. 14
Gene cluster 4286 = test: HiTES in S. erythraea, gene cluster 4286; format: cell-based; details: FIG. 13
Gene cluster 2875 = test: HiTES in S. erythraea, gene cluster 2875; format: cell-based; details: FIG. 11
Gene cluster 2631 = test: HiTES in S. erythraea, gene cluster 2631; format: cell-based; details: FIG. 10
Gene cluster 4143 = test: HiTES in S. erythraea, gene cluster 4143; format: cell-based; details: FIG. 12

CN[C@@H]1[C@H](O)[C@H](NC)[C@H]2O[C@@]3(O)C(=O)C[C@@H](C)O[C@H]3O[C@@H]2[C@H]1O [Spectinomycin]
upregulation of SAV3643 and SAV3665 (SAV3643 and SAV3665): 40-50 fold | concentration that inhibited growth (S. avermitilis): greater than 7.5 ug/mL | elicitor of gene cluster 3648 (ranking) (Gene cluster 3648): top four elicitors

COc1cc([C@@H]2c3cc4c(cc3[C@@H](O[C@@H]3O[C@@H]5CO[C@@H](C)O[C@H]5[C@H](O)[C@H]3O)[C@H]3COC(=O)[C@H]23)OCO4)cc(OC)c1O [etoposide]
anti-bacterial effect on S. albus (S. albus): had anti-bacterial effects on S. albus | induction of the sur cluster in both reporter strains (hit ranking) (sur cluster): best hits | upregulation of surC (surA and surC; at the optimal elicitor concentration, vs DMSO): ~10 fold | final concentration yielding optimal upregulation of sur (surA and surC; dose-response, RT-qPCR): ~23 µM | induction of surA and surC (surA and surC; mRNA vs DMSO control, wt S. albus): 3 fold

CC1(C)CCC2=C(O1)c1ccccc1C(=O)C2=O [beta-Lapachone]
elicitor of gene cluster 4477 (ranking) (Gene cluster 4477): top three elicitors | elicitor of gene cluster 4286 (ranking) (Gene cluster 4286): top three elicitors | elicitor of gene cluster 2875 (ranking) (Gene cluster 2875): top two elicitors | elicitor of gene cluster 2631 (ranking) (Gene cluster 2631): top three elicitors | elicitor of gene cluster 4143 (ranking) (Gene cluster 4143): top three elicitors
